Several values for one entry are separate records, joined by “and”; a condition that tells them apart may be missing. Equal entries are not always repeated. Where a SMILES comes first, the peptide text is derived from it. Bridges are numbered along the chain shown (N, C = ends).
What was measured:
[1] = system: HRS patients with diuretic intractable or refractory ascites; experiment: Example 2: six HRS patients with ascites treated with continuous infusion terlipressin, evaluated before, during and after treatment; type: in vivo, human; details: for Body Weight After / Plasma Sodium After / Serum Creatinine After / Serum Urea After: after treatment;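 as to Serum Urea After: serum urea in mmol/L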;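 as to Serum Urea During: serum urea in mmol/L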
Method: Six FIRS patients treated with continuous infusion terlipressin were evaluated for improvement in […]. All six patients had diuretic intractable or refractory ascites (5 of 6 with hyponatremia). The patients were evaluated for the following parameters before, during and after treatment: number of paracentesis procedures per month, volume of ascites removed, weight, serum sodium, urinary sodium excretion, serum creatinine, serum urea, and whether diuretics were included in the treatment regimen.

[2] = system: subjects with ascites due to liver cirrhosis, not type 1 or type 2 HRS; type: in vivo, human
Method: 15 subjects that are to be confirmed to have ascites, but not type 1 or type 2 HRS, due to liver cirrhosis will be administered continuous low dose (escalating from 2.0 to 3.0 mg per 24 hours) terlipressin via ambulatory infusion pump. […] Accordingly, continuous infusion pump (CIP) terlipressin represents a potentially life-saving solution for these seriously ill patients who are still ambulatory (have not yet been administered to the hospital for treatment) and have not developed type 1 or type 2 HRS.

[3] = human, in vivo; cited from earlier work
[4] = human, in vivo, cited from earlier work
[5] = Average (excludes patients #2, #3, #5)
[6] = Patient 1, max. dose 12 mg/day, 63 days
[7] = Patient 1, max. dose 12 mg/day, 63 days, diuretics during: A
[8] = Patient 2, max. dose 12 mg/day, 195 days
[9] = Patient 2, max. dose 12 mg/day, 195 days, diuretics during: None
[10] = Patient 3, max. dose 3 mg/day, 10 days
[11] = Patient 3, max. dose 3 mg/day, 10 days, diuretics during: None
[12] = Patient 4, max. dose 10 mg/day, 11 days
[13] = Patient 4, max. dose 10 mg/day, 11 days, diuretics during: None
[14] = Patient 5, max. dose 3 mg/day, 22 days
[15] = Patient 5, max. dose 3 mg/day, 22 days, diuretics during: None
[16] = Patient 6, max. dose 2 mg/day, 12 days
[17] = Patient 6, max. dose 2 mg/day, 12 days, diuretics during: F + A

SMILES: NCCCC[C@H](NC(=O)[C@@H]1CCCN1C(=O)[C@@H]1CSSC[C@H](NC(=O)CNC(=O)CNC(=O)CN)C(=O)N[C@@H](Cc2ccc(O)cc2)C(=O)N[C@@H](Cc2ccccc2)C(=O)N[C@@H](CCC(N)=O)C(=O)N[C@@H](CC(N)=O)C(=O)N1)C(=O)NCC(N)=O [terlipressin] (H-GGGCYFQNCPKG-NH2; disulfide 4-9)
- Plasma Sodium % Change ([1]; Average): 5%
- Plasma Sodium During ([1]; Average): 135 mEq/L
- Serum Creatinine % Change ([1]; Average): −47%
- Serum Creatinine During ([1]; Average): 127 µM
- Serum Urea % Change ([1]; Average): −45%
- Serum Urea During ([1]; Average): 15.1 mmol/L
- Body Weight % Change ([1]; Average (excludes Patient #4)): −11%
- Body Weight During ([1]; Average (excludes Patient #4)): 73 kg
- Body Weight After ([1]; Average (excludes Patient #4)): 87 kg
- Paracenteses/Month % Change ([1]; Average (excludes patient #1)): −32%
- Volume Fluid Removed/Month % Change ([1]; Average (excludes patient #1)): −55%
- Volume Fluid Removed/Month During ([1]; Average (excludes patient #1)): 14 L
- Urinary Na over 24 hours % Change [1, 5]: 1632%
- Urinary Na over 24 hours During [1, 5]: 127 mEq/24 hr
- Plasma Sodium After ([1]; Average): 136 mEq/L
- Serum Creatinine After ([1]; Average): 105 µM
- Serum Urea After ([1]; Average): 10.4 mmol/L
- Plasma Sodium % Change [1, 6]: −2%
- Plasma Sodium During [1, 6]: 137 mEq/L
- Serum Creatinine % Change [1, 6]: −24%
- Serum Creatinine During [1, 6]: 189 µM
- Serum Urea % Change [1, 6]: −72%
- Serum Urea During [1, 6]: 8.8 mmol/L
- Urinary Na over 24 hours % Change [1, 6]: 820%
- Urinary Na over 24 hours During [1, 6]: 46 mEq/24 hr
- Body Weight After [1, 6]: 74 kg
- Body Weight % Change [1, 7]: −11%
- Body Weight During [1, 7]: 74 kg
- Paracenteses/Month % Change [1, 7]: −100%
- Paracenteses/Month During [1, 7]: 0 /Month
- Plasma Sodium % Change [1, 8]: 2%
- Plasma Sodium During [1, 8]: 128 mEq/L
- Serum Creatinine % Change [1, 8]: −46%
- Serum Creatinine During [1, 8]: 208 µM
- Serum Urea % Change [1, 8]: −37%
- Serum Urea During [1, 8]: 23.2 mmol/L
- Urinary Na over 24 hours During [1, 8]: 301 mEq/24 hr
- Body Weight % Change [1, 9]: 11%
- Body Weight During [1, 9]: 71 kg
- Paracenteses/Month % Change [1, 9]: −25%
- Paracenteses/Month During [1, 9]: 6 /Month
- Volume Fluid Removed/Month % Change [1, 9]: −48%
- Volume Fluid Removed/Month During [1, 9]: 42 L
- Plasma Sodium % Change [1, 10]: 2%
- Plasma Sodium During [1, 10]: 136 mEq/L
- Serum Creatinine % Change [1, 10]: −50%
- Serum Creatinine During [1, 10]: 116 µM
- Serum Urea % Change [1, 10]: −46%
- Serum Urea During [1, 10]: 9.1 mmol/L
- Body Weight After [1, 10]: 128 kg
- Plasma Sodium After [1, 10]: 140 mEq/L
- Serum Creatinine After [1, 10]: 122 µM
- Serum Urea After [1, 10]: 10.8 mmol/L
- Body Weight % Change [1, 11]: −23%
- Body Weight During [1, 11]: 99 kg
- Paracenteses/Month % Change [1, 11]: −50%
- Paracenteses/Month During [1, 11]: 2 /Month
- Volume Fluid Removed/Month % Change [1, 11]: −65%
- Volume Fluid Removed/Month During [1, 11]: 14 L
- Plasma Sodium % Change [1, 12]: 15%
- Plasma Sodium During [1, 12]: 141 mEq/L
- Serum Creatinine % Change [1, 12]: −67%
- Serum Creatinine During [1, 12]: 104 µM
- Serum Urea % Change [1, 12]: −28%
- Serum Urea During [1, 12]: 37.3 mmol/L
- Urinary Na over 24 hours % Change [1, 12]: 1900%
- Urinary Na over 24 hours During [1, 12]: 20 mEq/24 hr
- Paracenteses/Month % Change [1, 13]: 50%
- Paracenteses/Month During [1, 13]: 3 /Month
- Volume Fluid Removed/Month % Change [1, 13]: −36%
- Volume Fluid Removed/Month During [1, 13]: 9 L
- Plasma Sodium % Change [1, 14]: −2%
- Plasma Sodium During [1, 14]: 128 mEq/L
- Serum Creatinine % Change [1, 14]: −19%
- Serum Creatinine During [1, 14]: 55 µM
- Serum Urea % Change [1, 14]: −17%
- Serum Urea During [1, 14]: 5.3 mmol/L
- Body Weight After [1, 14]: 77 kg
- Serum Creatinine After [1, 14]: 55 µM
- Serum Urea After [1, 14]: 10.5 mmol/L
- Body Weight % Change [1, 15]: −10%
- Body Weight During [1, 15]: 64 kg
- Paracenteses/Month % Change [1, 15]: −33%
- Paracenteses/Month During [1, 15]: 2 /Month
- Volume Fluid Removed/Month % Change [1, 15]: −71%
- Volume Fluid Removed/Month During [1, 15]: 6 L
- Plasma Sodium % Change [1, 16]: 19%
- Plasma Sodium During [1, 16]: 140 mEq/L
- Serum Creatinine % Change [1, 16]: −54%
- Serum Creatinine During [1, 16]: 90 µM
- Serum Urea % Change [1, 16]: −68%
- Serum Urea During [1, 16]: 6.6 mmol/L
- Urinary Na over 24 hours % Change [1, 16]: 1869%
- Urinary Na over 24 hours During [1, 16]: 315 mEq/24 hr
- Body Weight After [1, 16]: 68 kg
- Plasma Sodium After [1, 16]: 131 mEq/L
- Serum Creatinine After [1, 16]: 137 µM
- Serum Urea After [1, 16]: 10.0 mmol/L
- Body Weight % Change [1, 17]: −14%
- Body Weight During [1, 17]: 55 kg
- Paracenteses/Month % Change [1, 17]: −100%
- Paracenteses/Month During [1, 17]: 0 /Month
- Volume Fluid Removed/Month % Change [1, 17]: −100%
- Volume Fluid Removed/Month During [1, 17]: 0 L
- overall average decrease of urea concentration in blood serum ([1]; all patients, during treatment): 45%
- reduction of average monthly ascites fluid volume removed ([1]; during continuous infusion therapy vs prior to initiation): 55%
- decrease of average body weight per patient ([1]; during therapy, proxy for ascitic fluid accumulation): 11% and 9 kg and ~19.8 lbs
- improvement of ascites seen without diuretics ([1]; during treatment, number of patients): four of six patients
- plasma sodium after the cessation of therapy ([1]; patient #6): remained normal
- correction of severe hyponatremia ([1]; patients #4 and #6): corrected severe hyponatremia in two patients
- average urinary sodium after starting therapy ([1]; three of six patients with data before and after starting continuous infusion, increased from 7): 127 mEq/24 h
- average decrease in serum creatinine levels ([1]; treated group of patients): 47%
- severity of ascites and accumulation of ascites fluid ([2]; 2.0 to 3.0 mg per 24 hours escalating, 1 day to 28 days, expected): decrease the severity of ascites and the accumulation of ascites fluid
- average amount of fluid withdrawn after beginning therapy ([2]; compared to prior to the start of treatment, expected): significantly less than prior to the start of treatment
- number of paracentesis procedures required over a 28-day period ([2]; compared to the 28-day period prior to treatment inception, expected): reduce the number of paracentesis procedures
- safety of continuous infusion pump terlipressin ([2]; human, in vivo): no serious side effects
- half-life [3]: 26 min
- patients with side effects ([4]; iv): up to 40%
- patients with severe side effects requiring discontinuation of treatment [4]: up to 10%

From patent publication US11364277B2, “Treatment of ascites” (BioVie Inc., priority 2015, dated 2022)
